The target of one experiment is EGFR wildtype (WT) (Homo sapiens, UniProt P00533). In words: Biochemical EGFR kinase assay (Lance Ultra TR-FRET), wildtype. An outline of the steps:
(§1)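 Step 1: compound in kinase buffer, 0.003–10 μM. Step 2: kinase reaction 1 h at room temperature. Step 4: TR-FRET read at 615/665 nm; IC50 calculated.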

For a further experiment, the target named is EGFR del19/T790M/C797S (Homo sapiens, UniProt P00533, C797S/DEL746-750/T790M). As to the kind of experiment: Biochemical EGFR kinase assay (Lance Ultra TR-FRET), triple mutant del19/T790M/C797S. An outline of the steps: as §1
In the next experiment the target is EGFR L858R/C797S (Homo sapiens, UniProt P00533, C797S/L858R). In words: Biochemical EGFR kinase assay (Lance Ultra TR-FRET), double mutant L858R/C797S. An outline of the steps: as §1
A further experiment addresses EGFR L858R/T790M/C797S (Homo sapiens, UniProt P00533, C797S/L858R/T790M). As to the kind of experiment: Biochemical EGFR kinase assay (Lance Ultra TR-FRET), triple mutant L858R/T790M/C797S. In short, it runs like this:
as §1
In general terms: Time-resolved FRET reads energy transfer from a long-lived donor to a nearby acceptor.

A further experiment addresses EGFR del19/C797S (Homo sapiens, UniProt P00533, C797S/DEL746-750). As to the kind of experiment: Biochemical EGFR kinase assay (Lance Ultra TR-FRET), double mutant del19/C797S. In short, it runs like this:
as §1

[1] abbreviates: IC50 WT (nM) 100 μM ATP, 100 μM ATP.
Setting [2] is: IC50 del19/T790M/C797S (nM) 100 μM ATP, 100 μM ATP.
The mark [3] stands for this setting: IC50 L858R/C797S (nM) 100 μM ATP, 100 μM ATP.
Where [4] appears, read: IC50 L858R/T790M/C797S (nM) 100 μM ATP, 100 μM ATP.
Where [5] appears, read: IC50 del19/C797S (nM) 100 μM ATP, 100 μM ATP.
Where [6] appears, read: Km ATP, read-out: IC50 WT (nM) Km ATP.
[7] abbreviates: Km ATP, read-out: IC50 del19/T790M/C797S (nM) Km ATP.
The mark [8] stands for this setting: Km ATP, read-out: IC50 L858R/T790M/C797S (nM) Km ATP.
Where [9] appears, read: Km ATP, read-out: IC50 del19/C797S (nM) Km ATP.
The mark [10] stands for this setting: Km ATP, read-out: IC50 L858R/C797S (nM) Km ATP.

Like-named read-outs stand apart in the source and are kept apart here.

Chain of EGFR del19/T790M/C797S (P00533 with tags, fused parts or gaps DEL746-750/T790M/C797S): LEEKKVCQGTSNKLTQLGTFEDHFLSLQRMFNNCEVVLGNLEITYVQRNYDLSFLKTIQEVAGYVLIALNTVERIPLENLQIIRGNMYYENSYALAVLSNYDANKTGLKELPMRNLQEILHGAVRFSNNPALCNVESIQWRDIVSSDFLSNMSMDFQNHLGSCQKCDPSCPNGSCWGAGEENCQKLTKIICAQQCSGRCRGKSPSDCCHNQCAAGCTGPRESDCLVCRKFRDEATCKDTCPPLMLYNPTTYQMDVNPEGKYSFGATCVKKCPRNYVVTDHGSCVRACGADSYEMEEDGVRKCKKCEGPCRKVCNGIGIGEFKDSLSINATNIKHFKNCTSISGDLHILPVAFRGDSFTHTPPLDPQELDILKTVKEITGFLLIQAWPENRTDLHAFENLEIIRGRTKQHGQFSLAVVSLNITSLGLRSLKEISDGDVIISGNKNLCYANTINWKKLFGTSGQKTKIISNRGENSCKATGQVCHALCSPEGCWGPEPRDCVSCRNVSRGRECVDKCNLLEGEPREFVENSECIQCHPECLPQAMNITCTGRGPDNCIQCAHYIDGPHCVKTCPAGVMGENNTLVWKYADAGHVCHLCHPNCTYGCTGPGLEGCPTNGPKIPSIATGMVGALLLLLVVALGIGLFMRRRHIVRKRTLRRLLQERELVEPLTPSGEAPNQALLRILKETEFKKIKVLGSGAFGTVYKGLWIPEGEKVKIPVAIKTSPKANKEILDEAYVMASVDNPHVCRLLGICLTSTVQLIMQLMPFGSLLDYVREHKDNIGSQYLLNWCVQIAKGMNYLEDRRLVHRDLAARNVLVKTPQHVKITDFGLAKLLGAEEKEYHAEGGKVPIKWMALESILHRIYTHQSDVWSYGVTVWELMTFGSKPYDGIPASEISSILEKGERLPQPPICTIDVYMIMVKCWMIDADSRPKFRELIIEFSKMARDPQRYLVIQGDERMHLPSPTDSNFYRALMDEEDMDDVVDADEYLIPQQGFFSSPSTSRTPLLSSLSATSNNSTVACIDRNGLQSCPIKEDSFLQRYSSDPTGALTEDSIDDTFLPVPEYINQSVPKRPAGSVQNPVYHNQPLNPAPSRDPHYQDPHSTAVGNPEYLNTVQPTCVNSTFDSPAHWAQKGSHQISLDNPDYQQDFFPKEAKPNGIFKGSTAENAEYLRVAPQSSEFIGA
Chain of EGFR wildtype (WT) (P00533 25-1210): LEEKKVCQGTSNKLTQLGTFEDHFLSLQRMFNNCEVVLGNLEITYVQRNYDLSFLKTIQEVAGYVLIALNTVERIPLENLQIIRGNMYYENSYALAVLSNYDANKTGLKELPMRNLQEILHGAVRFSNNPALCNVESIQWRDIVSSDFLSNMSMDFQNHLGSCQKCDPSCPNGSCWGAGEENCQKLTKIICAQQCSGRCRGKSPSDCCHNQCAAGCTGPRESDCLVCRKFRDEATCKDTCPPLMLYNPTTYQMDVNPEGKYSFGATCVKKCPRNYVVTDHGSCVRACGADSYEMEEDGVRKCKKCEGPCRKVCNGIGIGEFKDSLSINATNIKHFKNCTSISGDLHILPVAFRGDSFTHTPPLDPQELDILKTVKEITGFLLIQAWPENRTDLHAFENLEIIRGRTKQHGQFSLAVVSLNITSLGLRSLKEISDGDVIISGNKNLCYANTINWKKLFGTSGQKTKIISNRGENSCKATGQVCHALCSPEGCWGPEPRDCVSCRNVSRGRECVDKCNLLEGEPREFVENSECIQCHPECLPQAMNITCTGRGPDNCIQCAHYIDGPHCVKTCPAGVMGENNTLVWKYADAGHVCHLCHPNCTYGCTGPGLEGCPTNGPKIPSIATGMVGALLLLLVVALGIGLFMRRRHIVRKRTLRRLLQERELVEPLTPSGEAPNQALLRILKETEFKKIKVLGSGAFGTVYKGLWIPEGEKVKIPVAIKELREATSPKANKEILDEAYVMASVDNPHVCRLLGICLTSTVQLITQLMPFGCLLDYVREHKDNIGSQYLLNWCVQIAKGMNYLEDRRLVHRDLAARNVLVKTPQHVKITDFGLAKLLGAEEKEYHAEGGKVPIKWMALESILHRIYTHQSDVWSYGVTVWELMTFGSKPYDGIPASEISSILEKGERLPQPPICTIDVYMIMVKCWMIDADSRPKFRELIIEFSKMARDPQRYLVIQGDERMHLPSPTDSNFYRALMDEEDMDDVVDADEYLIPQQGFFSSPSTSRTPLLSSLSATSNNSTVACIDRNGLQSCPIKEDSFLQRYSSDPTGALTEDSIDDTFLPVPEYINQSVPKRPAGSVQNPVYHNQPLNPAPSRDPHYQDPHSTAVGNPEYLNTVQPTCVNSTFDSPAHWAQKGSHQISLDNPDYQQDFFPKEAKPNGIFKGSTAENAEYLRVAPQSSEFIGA
Chain of EGFR L858R/C797S (P00533 25-1210 C797S/L858R): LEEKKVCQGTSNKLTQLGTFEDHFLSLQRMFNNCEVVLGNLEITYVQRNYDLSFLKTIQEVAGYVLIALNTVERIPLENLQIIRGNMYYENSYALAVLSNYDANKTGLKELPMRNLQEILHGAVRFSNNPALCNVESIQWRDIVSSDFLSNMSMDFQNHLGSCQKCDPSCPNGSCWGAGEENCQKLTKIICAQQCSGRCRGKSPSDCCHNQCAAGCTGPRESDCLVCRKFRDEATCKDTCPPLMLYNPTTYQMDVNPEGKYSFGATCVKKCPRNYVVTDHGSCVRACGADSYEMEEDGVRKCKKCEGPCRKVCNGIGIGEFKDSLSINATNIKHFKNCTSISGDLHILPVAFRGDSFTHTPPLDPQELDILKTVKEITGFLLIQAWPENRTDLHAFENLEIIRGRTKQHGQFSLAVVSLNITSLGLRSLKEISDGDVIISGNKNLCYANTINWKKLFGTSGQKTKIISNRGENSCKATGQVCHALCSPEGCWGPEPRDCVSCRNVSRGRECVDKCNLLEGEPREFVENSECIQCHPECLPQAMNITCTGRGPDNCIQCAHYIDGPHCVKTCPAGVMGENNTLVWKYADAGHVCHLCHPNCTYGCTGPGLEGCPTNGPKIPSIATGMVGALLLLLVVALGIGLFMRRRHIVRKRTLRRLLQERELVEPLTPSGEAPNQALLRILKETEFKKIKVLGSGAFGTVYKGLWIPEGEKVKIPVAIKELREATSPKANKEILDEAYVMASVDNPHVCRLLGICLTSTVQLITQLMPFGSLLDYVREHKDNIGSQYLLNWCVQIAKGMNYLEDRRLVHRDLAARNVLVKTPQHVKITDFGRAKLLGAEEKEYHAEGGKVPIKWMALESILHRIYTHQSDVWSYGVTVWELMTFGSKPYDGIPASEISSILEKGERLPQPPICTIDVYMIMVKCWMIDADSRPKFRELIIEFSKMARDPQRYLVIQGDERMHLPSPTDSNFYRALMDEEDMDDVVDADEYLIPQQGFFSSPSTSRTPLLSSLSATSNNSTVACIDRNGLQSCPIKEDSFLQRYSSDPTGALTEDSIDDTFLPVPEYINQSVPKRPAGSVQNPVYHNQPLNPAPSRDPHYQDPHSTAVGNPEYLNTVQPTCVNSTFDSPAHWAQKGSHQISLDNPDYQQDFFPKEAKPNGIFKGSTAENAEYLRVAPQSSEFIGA
Chain of EGFR L858R/T790M/C797S (P00533 25-1210 T790M/C797S/L858R): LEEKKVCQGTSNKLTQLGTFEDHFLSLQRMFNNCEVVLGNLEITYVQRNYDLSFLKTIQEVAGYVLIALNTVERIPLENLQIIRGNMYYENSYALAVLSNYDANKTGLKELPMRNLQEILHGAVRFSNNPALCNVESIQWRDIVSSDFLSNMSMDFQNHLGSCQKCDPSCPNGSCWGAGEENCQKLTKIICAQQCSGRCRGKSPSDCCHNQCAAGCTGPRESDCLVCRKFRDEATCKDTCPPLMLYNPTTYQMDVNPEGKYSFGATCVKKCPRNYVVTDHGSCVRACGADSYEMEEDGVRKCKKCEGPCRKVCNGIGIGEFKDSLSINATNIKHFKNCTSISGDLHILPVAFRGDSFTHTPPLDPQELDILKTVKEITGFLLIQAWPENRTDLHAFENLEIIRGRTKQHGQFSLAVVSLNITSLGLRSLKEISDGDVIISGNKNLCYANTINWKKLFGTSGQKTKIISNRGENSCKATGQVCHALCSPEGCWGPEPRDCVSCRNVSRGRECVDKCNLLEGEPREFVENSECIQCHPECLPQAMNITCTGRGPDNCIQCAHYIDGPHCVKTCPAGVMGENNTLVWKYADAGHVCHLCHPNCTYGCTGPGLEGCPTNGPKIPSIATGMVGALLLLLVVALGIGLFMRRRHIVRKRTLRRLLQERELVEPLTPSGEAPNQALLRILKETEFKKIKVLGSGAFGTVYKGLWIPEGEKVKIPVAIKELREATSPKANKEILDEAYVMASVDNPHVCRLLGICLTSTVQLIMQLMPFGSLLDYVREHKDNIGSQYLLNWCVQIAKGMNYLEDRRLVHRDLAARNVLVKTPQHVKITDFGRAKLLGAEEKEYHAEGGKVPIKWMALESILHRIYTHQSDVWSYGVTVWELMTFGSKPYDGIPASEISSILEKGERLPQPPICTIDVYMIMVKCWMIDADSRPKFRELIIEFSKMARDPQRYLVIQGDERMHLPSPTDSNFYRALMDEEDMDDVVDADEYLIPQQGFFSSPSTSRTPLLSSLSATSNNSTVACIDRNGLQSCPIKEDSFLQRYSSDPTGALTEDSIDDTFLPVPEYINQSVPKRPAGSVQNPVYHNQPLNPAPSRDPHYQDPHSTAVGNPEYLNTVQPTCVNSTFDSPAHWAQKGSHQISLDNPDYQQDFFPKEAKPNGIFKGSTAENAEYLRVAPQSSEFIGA

For `O=S(=O)(C1CC1)n1cc(-c2nccc(Nc3cc(N[C@H]4CC[C@@H](O)CC4)c(-c4cnn(C(F)F)c4)cn3)n2)cn1` [Example 77, (1s,4s)-4-((2-((2-(1-(Cyclopropylsulfonyl)-1H-pyrazol-4-yl)pyrimidin-4-yl)amino)-5-(1-(difluoromethyl)-1H-pyrazol-4-yl)pyridin-4-yl)amino)cyclohexan-1-ol], the IC50 was over 10000 nM at EGFR wildtype (WT) (setting [1]); 8.8 nM at EGFR del19/T790M/C797S (setting [2]); 479 nM on EGFR L858R/C797S (setting [3]); 11.4 nM against EGFR L858R/T790M/C797S (setting [4]); 80.8 nM on EGFR del19/C797S (setting [5]).

On to `O=S(=O)(C1CC1)n1cc(-c2nccc(Nc3cc(N[C@H]4CC[C@@H](NCCF)CC4)c(-c4csc(N5CCOCC5)n4)cn3)n2)cn1` [Example 126, N^2-(2-(1-(Cyclopropylsulfonyl)-1H-pyrazol-4-yl)pyrimidin-4-yl)-N^4-((1s,4s)-4-((2-fluoroethyl)amino)cyclohexyl)-5-(2-morpholinothiazol-4-yl)pyridine-2,4-diamine], for which the IC50 against EGFR wildtype (WT) (setting [1]) was over 10000 nM; at EGFR wildtype (WT) (setting [6]), 112 nM; against EGFR del19/T790M/C797S (setting [2]), 0.8 nM; on EGFR del19/T790M/C797S (setting [7]) it was 0.7 nM; at EGFR L858R/C797S (setting [3]), 379 nM; against EGFR L858R/T790M/C797S (setting [4]) it was 1.3 nM. The values for the IC50 at EGFR L858R/T790M/C797S (setting [8]), against EGFR del19/C797S (setting [5]) and at EGFR del19/C797S (setting [9]) were 0.4 nM, 30.3 nM and 21 nM, respectively.

In the case of `O=S(=O)(C1CC1)n1cc(-c2nccc(Nc3cc(NN4CCC(O)CC4)c(-c4ccn(C(F)F)n4)cn3)n2)cn1` [Example 153, 1-((2-((2-(1-(Cyclopropylsulfonyl)-1H-pyrazol-4-yl)pyrimidin-4-yl)amino)-5-(1-(difluoromethyl)-1H-pyrazol-3-yl)pyridin-4-yl)amino)piperidin-4-ol], the IC50 is 3.9 nM on EGFR wildtype (WT) (setting [6]); 0.1 nM on EGFR del19/T790M/C797S (setting [7]); 0.1 nM on EGFR L858R/C797S (setting [10]); 0.1 nM at EGFR L858R/T790M/C797S (setting [8]); 1.3 nM on EGFR del19/C797S (setting [9]).

`CS(=O)(=O)N1CCC(c2nccc(Nc3cc(N[C@H]4CC[C@@](C)(O)CC4)c(-c4ccn(C(F)F)n4)cn3)n2)CC1` [Example 158, (1s,4s)-4-((5-(1-(Difluoromethyl)-1H-pyrazol-3-yl)-2-((2-(1-(methylsulfonyl)piperidin-4-yl)pyrimidin-4-yl)amino)pyridin-4-yl)amino)-1-methylcyclohexan-1-ol]: the IC50 at EGFR wildtype (WT) (setting [6]) was found to be 635 nM; on EGFR del19/T790M/C797S (setting [7]), 110 nM; on EGFR L858R/C797S (setting [10]) it was 450 nM; on EGFR L858R/T790M/C797S (setting [8]), 9.4 nM; on EGFR del19/C797S (setting [9]) it was 6330 nM.

Regarding `Cc1nn(CC(F)(F)F)cc1-c1nccc(Nc2cc(N[C@H]3CC[C@@](C)(O)CC3)c(-c3ccn(C(F)F)n3)cn2)n1` [Example 320, (1s,4s)-4-((5-(1-(Difluoromethyl)-1H-pyrazol-3-yl)-2-((2-(3-methyl-1-(2,2,2-trifluoroethyl)-1H-pyrazol-4-yl)pyrimidin-4-yl)amino)pyridin-4-yl)amino)-1-methylcyclohexan-1-ol], the IC50 on EGFR wildtype (WT) (setting [6]) was 33.5 nM; on EGFR del19/T790M/C797S (setting [7]) it was 0.4 nM; at EGFR L858R/C797S (setting [10]) it was 1.8 nM; on EGFR L858R/T790M/C797S (setting [8]), 0.2 nM; on EGFR del19/C797S (setting [9]), 3.9 nM.

In the case of `COCn1ccc(-c2cnc(Nc3ccnc(-c4cnn(S(=O)(=O)C5CC5)c4)n3)cc2N[C@H]2CC[C@@](C)(O)CC2)n1` [Example 294, (1s,4s)-4-((2-((2-(1-(Cyclopropylsulfonyl)-1H-pyrazol-4-yl)pyrimidin-4-yl)amino)-5-(1-(methoxymethyl)-1H-pyrazol-3-yl)pyridin-4-yl)amino)-1-methylcyclohexan-1-ol], the IC50 at EGFR wildtype (WT) (setting [6]) came to 0.9 nM; on EGFR del19/T790M/C797S (setting [7]) it was 0.4 nM; at EGFR L858R/C797S (setting [10]), 0.1 nM; on EGFR L858R/T790M/C797S (setting [8]), 0.2 nM; on EGFR del19/C797S (setting [9]), 1 nM.

Consider `CN(C)C[C@H]1CC[C@@H](Nc2cc(Nc3ccnc(-c4cnn(S(=O)(=O)C5CC5)c4)n3)ncc2-c2cc(C(F)(F)F)n(C)n2)CC1` [Example 256, N^2-(2-(1-(Cyclopropylsulfonyl)-1H-pyrazol-4-yl)pyrimidin-4-yl)-N^4-((1s,4s)-4-((dimethylamino)methyl)cyclohexyl)-5-(1-methyl-5-(trifluoromethyl)-1H-pyrazol-3-yl)pyridine-2,4-diamine], for which the IC50 was found to be 123 nM at EGFR wildtype (WT) (setting [1]); 0.5 nM on EGFR wildtype (WT) (setting [6]); 1.4 nM on EGFR del19/T790M/C797S (setting [7]); 7.5 nM against EGFR L858R/C797S (setting [3]); 0.5 nM against EGFR L858R/T790M/C797S (setting [4]); 0.4 nM at EGFR L858R/T790M/C797S (setting [8]). Besides, the IC50 turned out to be 2 nM at EGFR del19/C797S (setting [5]) and 0.8 nM on EGFR del19/C797S (setting [9]).

Source of the values: US12258327B2, “5-membered heteroaryl-containing aminopyridine compounds as EGFR inhibitors” (YUHAN CORPORATION, priority 2021, dated 2025).
